Source: patent publication US4824955A, “Selenium oxy chloride-pyridine or bipyridine complexes” (Nippon Kayaku Kabushiki Kaisha, priority 1985, dated 1989)
Several values for one entry are separate records, joined by “and”; a condition that tells them apart may be missing. Equal values may be shown once. Read-outs that look alike come from different tables or passages of the source.

Assays:
[1] = tested on: Enrlich carcinoma; assay: Antineoplastic activity against Enrlich carcinoma (life prolongation rate); type: in vivo, 5-week-old ICR mice (male); set-up: response vs control in vivo: dose or concentration left out as unconfirmed; details: for response vs control in vivo at 2 mg/kg / response vs control in vivo at 8 mg/kg / response vs control in vivo at 16 mg/kg / response vs control in vivo / response vs control in vivo at 1 mg/kg / response vs control in vivo at 4 mg/kg: Mus musculus, ip, 1440 h, read-out: Life prolongation rate (T/C %); for response vs control in vivo at 1 mg/kg: 1.0 mg/kg/day
Experimental: Approximately 10^6 cells/0.2 ml of Enrlich carcinoma were inoculated into the abdominal cavity of each of the 5-week-old ICR mice (male) used for the test, and the test compounds were administered intraperitoneally to the mice of the treated group once a day for a period of 7 days, starting from the day after said inoculation. The mice of the control group was administered with a saline solution in the same way. Observation of the animals of both groups was continued for 60 days after the administration, and the life prolongation rate (T/C%, T/C×100) was determined from the average duration (days) of life of the mice of the treated group (T) and that of the mice of the control group (C).

[2] = in vivo; details: mouse, ip, LD50, intraperitoneal, once a day, 7 days, mice
[3] = 2.0 mg/kg/day, intraperitoneal, once a day, 7 days
[4] = 8.0 mg/kg/day, intraperitoneal, once a day, 7 days
[5] = […], intraperitoneal, (Note 1) administered for 4 days
[6] = intraperitoneal, once a day, 7 days
[7] = […], intraperitoneal, once a day, 7 days
[8] = […], intraperitoneal, (Note 2) administered for 2 days

Structure (SMILES) | response vs control in vivo at 2 mg/kg [1, 3] | response vs control in vivo at 8 mg/kg [1, 4] | response vs control in vivo [1, 6] | LD50 [2] | other results
CCc1ccncc1 [Compound 1-6, Selenium oxychloride-4-ethylpyridine (1:2) complex] | 173% | 244% | 209% | 8 to 16 mg/kg | response vs control in vivo at 16 mg/kg [1, 5]: 103%
O=[Se](OCC(Cl)c1ccccc1)OCC(Cl)c1ccccc1 (stereo not drawn) [Compound 3-5] | 154% | 223% | 194% | > 16 mg/kg | response vs control in vivo at 16 mg/kg ([1]; […], intraperitoneal, (Note 5) administered for 6 days): 167%
c1ccc(-c2ccncc2)cc1 [Compound 1-11, Selenium oxychloride-4-phenylpyridine (1:2) complex] | 166% | 230% | – | > 16 mg/kg | response vs control in vivo at 16 mg/kg [1, 7]: 221%
N#Cc1cccnc1 [Compound 2-7, Tetrachloroselenium-3-cyanopyridine (1:2) complex] | – | – | – | 8 to 16 mg/kg | response vs control in vivo at 2 mg/kg ([1]; 2.0 mg/kg/day, intraperitoneal, 7 days, solvent used: DMSO): 201%; response vs control in vivo at 8 mg/kg ([1]; 8.0 mg/kg/day, intraperitoneal, 7 days, solvent used: DMSO): 214%; response vs control in vivo at 16 mg/kg ([1]; […], intraperitoneal, 7 days, solvent used: DMSO): 67%; response vs control in vivo ([1]; intraperitoneal, 7 days, solvent used: DMSO): 243%
CC(C)c1ccncc1 [Compound 1-7, Selenium oxychloride-4-isopropylpyridine (1:2) complex] | – | 256% | 222% | 8 to 16 mg/kg | response vs control in vivo at 16 mg/kg [1, 5]: 201%
Fc1cccnc1 [Compound 1-12, Selenium oxychloride-3-fluoropyridine (1:2) complex] | 194% | 201% | 219% | 8 to 16 mg/kg | response vs control in vivo at 16 mg/kg [1, 8]: 140%
Clc1cncc(Cl)c1 [Compound 1-15, Selenium oxychloride-3,5-dichlorpyridine (1:2) complex] | 154% | 191% | 174% | 8 to 16 mg/kg | response vs control in vivo at 16 mg/kg [1, 5]: 162%
O=P(c1ccccc1)(c1ccccc1)c1ccccc1 [Compound 1-36, Selenium oxycloride-triphenylphosphine oxide (1:2) complex] | 155% | – | 186% | > 16 mg/kg | response vs control in vivo at 16 mg/kg [1, 7]: 197%
Cn1cncc1Br [Compound 1-28, Selenium oxychloride-1-methyl-5-bromoimidazole (1:2) complex] | – | 215% | 217% | > 16 mg/kg | response vs control in vivo at 16 mg/kg [1, 5]: 264%
c1ccncc1 [Compound 1-1, Selenium oxybromide-pyridine (1:2) complex] | – | – | – | 8 to 16 mg/kg | Life prolongation rate (T/C %) ([1]; mouse, in vivo): 165% and 173% and 181% and 130%
O=[Se](OC1C2CCC(C2)C1Cl)OC1C2CCC(C2)C1Cl (stereo not drawn) [Compound 3-7, Di-(3-chloronorbonyl-2-il)selenite] | 143% | 201% | 148% | 8 to 16 mg/kg | response vs control in vivo at 16 mg/kg [1, 5]: 119%
CCC(Cl)CO[Se](=O)OCC(Cl)CC (stereo not drawn) [Compound 3-3, Di-(2-chlorobutyl)selenite] | 205% | 212% | 230% | > 8 mg/kg | response vs control in vivo at 1 mg/kg [1, 6]: 172%
CC(C)(Cl)CO[Se](=O)OCC(C)(C)Cl [Compound 3-2, Di-(2-chloro-2-methylpropyl)-selenite] | 178% | 207% | 232% | 8 to 16 mg/kg | response vs control in vivo at 16 mg/kg [1, 8]: 63%
Clc1cccnc1 [Compound 1-13, Selenium oxychloride-3-chloropyridine (1:2) complex] | – | – | – | 8 to 16 mg/kg | response vs control in vivo at 2 mg/kg [1]: 142%; response vs control in vivo at 4 mg/kg [1]: 172%; response vs control in vivo at 8 mg/kg [1]: 158%; response vs control in vivo at 16 mg/kg [1]: 84%
Cn1cnc2c1c(=O)n(Cc1ccccc1)c(=O)n2C [Compound 1-34, Selenium oxychloride-N--benzyltheobromine (1:2) complex] | 122% | 187% | 159% | > 16 mg/kg | response vs control in vivo at 16 mg/kg [1, 7]: 190%
Cc1ccccn1 [Compound 1-2, Selenium oxychloride-2-picoline (1:2) complex] | – | – | – | 8 to 16 mg/kg | response vs control in vivo at 2 mg/kg [1]: 176%; response vs control in vivo at 4 mg/kg [1]: 169%; response vs control in vivo at 8 mg/kg [1]: 194%; response vs control in vivo at 16 mg/kg [1]: 75%
Cn1c(=O)c2c(ncn2Cc2ccccc2)n(C)c1=O [Compound 1-33, Selenium oxychloride-N--benzyltheophylline (1:2) complex] | 138% | 214% | – | > 16 mg/kg | response vs control in vivo at 16 mg/kg [1, 7]: 205%
CN(C)c1ccncc1 [Compound 3-12, Selenium oxychloride-4-dimethylaminopyridine (1:2) complex] | – | – | – | > 16 mg/kg | response vs control in vivo at 2 mg/kg [1]: 169%; response vs control in vivo at 4 mg/kg [1]: 183%; response vs control in vivo at 8 mg/kg [1]: 232%; response vs control in vivo at 16 mg/kg [1]: 190%
CCC1(CC)CO[Se](=O)OC1 [Compound 3-9, 2,2-diethyl-1,3-propanediolselenite] | 152% | 223% | 204% | > 16 mg/kg | response vs control in vivo at 16 mg/kg [1, 7]: 194%
CCCCCCC(Cl)CO[Se](=O)OCC(Cl)CCCCCC (stereo not drawn) [Compound 3-4, Di-(2-chlorooctyl)selenite] | 156% | 180% | 208% | 8 to 16 mg/kg | response vs control in vivo at 16 mg/kg [1, 5]: 53%
CCC1CO[Se](=O)O1 (stereo not drawn) [Compound 3-8, 1,2-butanediolselenite] | 250% | 212% | 194% | > 8 mg/kg | response vs control in vivo at 1 mg/kg [1, 6]: 208%
CC(Cl)C(C)O[Se](=O)OC(C)C(C)Cl (stereo not drawn) [Compound 3-1, Di-(2-chloro-1-methylpropyl)-selenite] | 177% | 193% | 179% | 8 to 16 mg/kg | response vs control in vivo at 16 mg/kg [1, 7]: 90%
c1ccc(-c2cccnc2)cc1 [Compound 1-10, Selenium oxychloride-3-phenylpyridine (1:2) complex] | 251% | 203% | 192% | > 16 mg/kg | response vs control in vivo at 16 mg/kg [1, 7]: 199%
O=[Se](OC1CCCCC1Cl)OC1CCCCC1Cl (stereo not drawn) [Compound 3-6, Di-(2-chlorcyclohexyl)selenite] | 210% | 253% | 216% | 8 to 16 mg/kg | response vs control in vivo at 16 mg/kg ([1]; […], intraperitoneal, (Note 3) administered for 3 days): 95%
Brc1cccnc1 [Compound 1-14, Selenium oxychloride-3-bromopyridine (1:2) complex] | 163% | 202% | 179% | 8 to 16 mg/kg | response vs control in vivo at 16 mg/kg [1, 5]: 147%
